# From patent US20200284781A1, “TEST METHOD OF COMBINED TOXICITY FOR CH[…] BUTACHLOR” (priority 2019, published 2020)
# Columns and labels:
# [1] = Single toxicity of chlorpyrifos and butachlor to Japanese medaka larvae; conditions: in vivo, other: immersion in test solution (waterborne exposure), read-out: LC50 (95% CI)
# Description: (§1) H. Data processing: Calculating the LC50 value of pesticides on larvae and their 95% confidence limits by probit analysis based on the number and time of dead fish larvae, and using 95% confidence limit of LC50 as the criterion to determine whether the toxicity difference of different pesticides is significant, LC50≤0.1 mg a.i. L^−1, is hypertoxic; 0.1<LC50≤1.0 mg a.i. L^−1, is high toxicity; 1.0<LC50≤[…] a.i. L^−1, is medium toxicity; LC50>10.0 mg a.i. L^−1 is low toxicity. The maximum allowable concentration of MPC employs 100 as the protection factor, the formula is: MPC=96 h-LC50/100, to get the maximum allowable concentration of a poison.
# (§2) H. Data processing: Calculating the LC50 value of pesticides on larvae and their 95% confidence limits by probit analysis based on the number and time of dead fish larvae, and using 95% confidence limit of LC50 as the criterion to determine whether the toxicity difference of different drugs is significant, LC50≤0.1 mg a.i. L^−1, is hypertoxic; 0.1<LC50≤1.0 mg a.i. L^−1, is high toxicity; 1.0<LC50≤10.0 mg a.i. L^−1, is medium toxicity; LC50>10.0 mg a.i. L^−1, is low toxicity, the maximum allowable concentration of MPC employs 100 as the protection factor, the formula is: MPC=96 h-LC50/100, to get the maximum allowable concentration of a poison.
# (§3) Wherein the larvae in the migratory period in step E refer to fish 120 h after fertilization of eggs, for improving the accuracy of the test.
# [2] = Combined toxicity of chlorpyrifos and butachlor to Japanese medaka larvae; conditions: in vivo
# Description: (§4) F. Combined toxicity test: The toxicity test is performed on zebrafish larvae and Japanese medaka larvae, the test procedure is as follows:
# b. Japanese medaka: A single pesticide is used to measure the LC50 value of Japanese medaka for 96 hours, mixing chlorpyrifos and butachlor to form binary mixed systems with different ratios of 1:4, 2:3, 1:1, 3:2 and 4:1, according to the pre-experiment results, 5-7 different concentrations are set at equal logarithmic intervals to determine the combined toxicity of the mixed system to Japanese medaka, the method is the same as the determination of single toxicity, the total concentration of the binary mixture is the sum of the concentrations of the two components;
# b. Japanese medaka: A single pesticide is used to measure the LC50 value of Japanese medaka for 96 hours, mixing chlorpyrifos and butachlor to form binary mixed systems with different ratios of 1:4, 2:3, 1:1, 3:2 and 4:1, according to the pre-experiment results, 5-7 different concentrations with a geometrical ratio are set at equal logarithmic intervals to determine the combined toxicity of the mixed system to Japanese medaka the method is the same as the determination, of single toxicity, the total concentration of the binary mixture is the sum of the concentrations of the two components;
# as §2
# [3] = Single toxicity of chlorpyrifos and butachlor to zebrafish larvae; conditions: in vivo, other: immersion in test solution (waterborne exposure), read-out: LC50 (95% CI)
# Description: as §1, §2, §3
# [4] = Combined toxicity of chlorpyrifos and butachlor to zebrafish larvae; conditions: in vivo, read-out: LC50 (95% CI) of the component in the mixture
# Description: as §4
# a. Zebrafish larvae: The LC50 value of zebrafish larvae with a single pesticide for 96 h is a toxic unit, and 5-7 different concentrations with a geometrical ratio, test method and calculation of LC50 value of each exposure time are the same as 1.4.2;
# as §2
# [5] = Single toxicity of chlorpyrifos and butachlor to zebrafish embryos; type: in vivo; conditions: in vivo, other: immersion in test solution (waterborne exposure), read-out: LC50 (95% CI)
# Description: (§5) D. Toxicity of pesticides to zebrafish embryos: On the basis of clearing the effective concentration range of pesticides in pre-tests, diluting the pesticide stock solution with standard dilution water to 5-7 concentrations with a geometrical ratio, and using a 24 well cell culture dish for exposure apparatus, the volume of each well is 3 mL, 20 wells are the same experimental concentration, and the remaining 4 wells are blank controls; during the experiment, of test solution and 1 randomly selected 3 hpf (hourpost-fertilization) normal fertilized embryo at the embryo shield stage were put into every well, set up 3 replicates at each concentration, every culture dish as a replicate, and incubating in a multifunctional incubator at 26±1° C. with a photoperiod of 14 h (light): 10 h (dark);
# (§6) Preferably, in the step D, the test solution needs to be replaced every 24 h, observing and microscopical observing the CK group and the exposed group every 24 h, recording the number of embryos with normal development and malformations, and calculating the number of embryos hatched and larvae malformations, the experiment lasts 96 hours.
# as §5, with “24-well” for “24 well”, “poisoning” for “exposure”, “experiment, 2 mL” for “experiment,”, “C. V:” for “C.”
# as §2
# (§7) Wherein in the step D, the test solution needs to be replaced every 24 h, observing and microscopical observing the CK group and the exposed group every 24 h, recording the number of embryos with normal development and malformations, and calculating the number of embryos hatched and larvae malformations, the experiment lasts 96 hours, for structural analysis.
# [6] = test system: zebrafish embryos; assay: as above; type: in vivo
# Description: as §5, §6
# as §5, with “24-well” for “24 well”, “poisoning” for “exposure”, “experiment, 2 mL” for “experiment,”, “C. V:” for “C.”
# as §2, §7
smiles,measurement,setting,value
"CCOP(=S)(OCC)Oc1nc(Cl)c(Cl)cc1Cl [Chlorpyrifos, chlorpyrifos]",LC50 at 24 h,[1]; exposure time 24 h,0.75 µg/mL
same,LC50 at 48 h,[1]; exposure time 48 h,0.4 µg/mL
same,LC50 at 72 h,[1]; exposure time 72 h,0.35 µg/mL
same,LC50 at 96 h,[1]; exposure time 96 h,0.24 µg/mL
same,LC50 at 24 h,"[2]; Japanese medaka larvae, chlorpyrifos:butachlor ratio 4:1, 24 h, read-out: LC50 (95% CI) of the component in the mixture",0.8 µg/mL
same,LC50 at 96 h,"[2]; Japanese medaka larvae, chlorpyrifos:butachlor ratio 4:1, 96 h, read-out: LC50 (95% CI) of the component in the mixture",0.14 µg/mL
same,LC50 at 24 h,"[2]; other: immersion in test solution (waterborne exposure), Japanese medaka larvae, chlorpyrifos:butachlor ratio 1:1, 24 h, read-out: LC50 (95%) CI of the component in the mixture",1.53 µg/mL
same,LC50 at 48 h,"[2]; other: immersion in test solution (waterborne exposure), Japanese medaka larvae, chlorpyrifos:butachlor ratio 1:1, 48 h, read-out: LC50 (95%) CI of the component in the mixture",1.22 µg/mL
same,LC50 at 72 h,"[2]; other: immersion in test solution (waterborne exposure), Japanese medaka larvae, chlorpyrifos:butachlor ratio 1:1, 72 h, read-out: LC50 (95%) CI of the component in the mixture",0.93 µg/mL
same,LC50 at 96 h,"[2]; other: immersion in test solution (waterborne exposure), Japanese medaka larvae, chlorpyrifos:butachlor ratio 1:1, 96 h, read-out: LC50 (95%) CI of the component in the mixture",0.81 µg/mL
same,LC50 at 48 h,"[2]; other: immersion in test solution (waterborne exposure), Japanese medaka larvae, chlorpyrifos:butachlor ratio 4:1, 48 h, read-out: LC50 (95% CI) of the component in the mixture",0.61 µg/mL
same,LC50 at 72 h,"[2]; other: immersion in test solution (waterborne exposure), Japanese medaka larvae, chlorpyrifos:butachlor ratio 4:1, 72 h, read-out: LC50 (95% CI) of the component in the mixture",0.43 µg/mL
same,LC50 at 24 h,"[2]; other: immersion in test solution (waterborne exposure), chlorpyrifos:butachlor ratio 1:4, 24 h, read-out: LC50 (95% CI) of the component in the mixture",0.57 µg/mL
same,LC50 at 48 h,"[2]; other: immersion in test solution (waterborne exposure), chlorpyrifos:butachlor ratio 1:4, 48 h, read-out: LC50 (95% CI) of the component in the mixture",0.33 µg/mL
same,LC50 at 72 h,"[2]; other: immersion in test solution (waterborne exposure), chlorpyrifos:butachlor ratio 1:4, 72 h, read-out: LC50 (95% CI) of the component in the mixture",0.28 µg/mL
same,LC50 at 96 h,"[2]; other: immersion in test solution (waterborne exposure), chlorpyrifos:butachlor ratio 1:4, 96 h, read-out: LC50 (95% CI) of the component in the mixture",0.22 µg/mL
same,LC50 at 24 h,"[2]; other: immersion in test solution (waterborne exposure), chlorpyrifos:butachlor ratio 2:3, 24 h, read-out: LC50 (95% CI) of the component in the mixture",1.52 µg/mL
same,LC50 at 48 h,"[2]; other: immersion in test solution (waterborne exposure), chlorpyrifos:butachlor ratio 2:3, 48 h, read-out: LC50 (95% CI) of the component in the mixture",0.44 µg/mL
same,LC50 at 72 h,"[2]; other: immersion in test solution (waterborne exposure), chlorpyrifos:butachlor ratio 2:3, 72 h, read-out: LC50 (95% CI) of the component in the mixture",0.28 µg/mL
same,LC50 at 96 h,"[2]; other: immersion in test solution (waterborne exposure), chlorpyrifos:butachlor ratio 2:3, 96 h, read-out: LC50 (95% CI) of the component in the mixture",0.23 µg/mL
same,LC50 at 24 h,"[2]; other: immersion in test solution (waterborne exposure), chlorpyrifos:butachlor ratio 3:2, 24 h, read-out: LC50 (95% CI) of the component in the mixture",2.23 µg/mL
same,LC50 at 48 h,"[2]; other: immersion in test solution (waterborne exposure), chlorpyrifos:butachlor ratio 3:2, 48 h, read-out: LC50 (95% CI) of the component in the mixture",1.94 µg/mL
same,LC50 at 72 h,"[2]; other: immersion in test solution (waterborne exposure), chlorpyrifos:butachlor ratio 3:2, 72 h, read-out: LC50 (95% CI) of the component in the mixture",1.31 µg/mL
same,LC50 at 96 h,"[2]; other: immersion in test solution (waterborne exposure), chlorpyrifos:butachlor ratio 3:2, 96 h, read-out: LC50 (95% CI) of the component in the mixture",0.99 µg/mL
same,LC50 at 24 h,[3]; exposure time 24 h,0.67 µg/mL
same,LC50 at 48 h,[3]; exposure time 48 h,0.39 µg/mL
same,LC50 at 72 h,[3]; exposure time 72 h,0.34 µg/mL
same,LC50 at 96 h,[3]; exposure time 96 h,0.27 µg/mL
same,LC50 at 24 h,[4]; equitoxic ratio,0.55 µg/mL
same,LC50 at 48 h,[4]; equitoxic ratio,0.43 µg/mL
same,LC50 at 72 h,[4]; equitoxic ratio,0.27 µg/mL
same,LC50 at 96 h,[4]; equitoxic ratio,0.16 µg/mL
same,LC50 at 24 h,[4]; equivalent concentration (1:1),0.18 µg/mL
same,LC50 at 48 h,[4]; equivalent concentration (1:1),0.16 µg/mL
same,LC50 at 72 h,[4]; equivalent concentration (1:1),0.14 µg/mL
same,LC50 at 96 h,[4]; equivalent concentration (1:1),0.11 µg/mL
same,LC50 at 24 h,[5]; exposure time 24 h,170 µg/mL
same,LC50 at 48 h,[5]; exposure time 48 h,120 µg/mL
same,LC50 at 72 h,[5]; exposure time 72 h,63.4 µg/mL
same,LC50 at 96 h,[5]; exposure time 96 h,13 µg/mL
same,effects of exposure on zebrafish embryo development,[6],"egg coagulation, pericardial edema, yolk sac edema, and spinal curvature"
